# Like-named read-outs stand apart in the source and are kept apart here.
# System: S. mansoni schistosomula
# Experiment: S. mansoni schistosomula high-throughput phenotype and motility screen (Roboworm), 72 h
# Assay type: cell-based, Schistosoma mansoni
# Details: for EC50: Schistosoma mansoni; for Effect on phenotype and motility of S. mansoni schistosomula: primary tested concentrations 10 and 50 μM
# Procedure: Cercariae derived from the NMRI ([…]) Puerto Rican strain (PR-1) of S. mansoni were shed from two Biomphalaria glabrata strains, the NMRI albino and pigmented outbred strains, under intensified lighting conditions (1 h of incubation at 26 °C). Cercariae were then mechanically transformed into schistosomula as previously described.
# High-throughput screening (HTS) of selected compounds was conducted as previously described. Briefly, newly transformed schistosomula were distributed in a 384-well tissue culture plate (PerkinElmer, cat 6007460, seeding density of 120 parasites/well). Each compound (at a single concentration or two-fold titrations) was transferred into individual wells alongside the positive and negative controls (AUR at 10 μM final concentration in 0.625% DMSO and 0.625% DMSO, respectively). Schistosomula/compound co-cultures were then incubated at 37 °C for 72 h in a humidified atmosphere containing 5% CO2. Following the co-culture period, automatic assessment of compound-induced schistosomula motility and phenotypic changes were conducted with the high-content imaging platform Roboworm using the image analysis model previously described by Paveley et al..
# [1] = 72 h, Table 1, 72 h, two dose response titrations (0.313–10 μM), 95% CI in brackets, read-out: Activity on schistosomula (EC50, μM - 72 h) Motility
# [2] = 72 h, Table 1, 72 h, two dose response titrations (0.313–10 μM), 95% CI in brackets, read-out: Activity on schistosomula (EC50, μM - 72 h) Phenotype
# [3] = 72 h, Table 1, mean of phenotype and motility EC50, 72 h, read-out: Activity on schistosomula (EC50, μM - 72 h) Average
# [4] = Fig. S3, average schistosomula EC50, read-out: EC50 (Fig. S3, anti-schistosomula activity)
compound,measurement,setting,value
OCc1cccc(N=c2[nH]c3ccccc3[nH]c2=Nc2cccc(CO)c2)c1 [Compound 7],EC50,[1],> 10 µM
same,EC50,[2],> 10 µM
same,Effect on phenotype and motility of S. mansoni schistosomula,72 h,weak effect
Fc1ccccc1Nc1nc2ccccc2nc1Nc1ccccc1F [Compound 13],EC50,[1],> 10 µM
same,EC50,[2],> 10 µM
same,Effect on phenotype and motility of S. mansoni schistosomula,72 h,weak effect
CCOC(=O)c1ccc(Nc2nc3ccccc3nc2Nc2ccc(C(=O)OCC)cc2)cc1 [Compound 10],Activity on schistosomula in the primary screen at 10 μM,72 h,retained activity
same,EC50,[1],5.83 µM
same,EC50,[2],5.12 µM
same,EC50,[3],5.47 µM
O=C(O)C=Cc1cccc(Nc2nc3ccc([N+](=O)[O-])cc3nc2Nc2cccc(C=CC(=O)O)c2)c1 [Compound 24],EC50,[1],> 10 µM
same,EC50,[2],> 10 µM
same,Effect on phenotype and motility of S. mansoni schistosomula,72 h,weak effect
Cc1ccc(Nc2nc3ccccc3nc2Nc2ccc(C)c(Cl)c2)cc1Cl [Compound 17],Activity on schistosomula in the primary screen at 10 μM,72 h,retained activity
same,EC50,[1],2.45 µM
same,EC50,[2],2.88 µM
same,EC50,[3],2.66 µM
same,EC50,"72 h, read-out: EC50 on schistosomula (bounds and ranges given)",1 to 2 µM
COc1ccc(/N=c2\[nH]c3ccccc3s\c2=N\c2ccc(OC)cc2)cc1 [Compound 3],EC50,[1],> 50 µM
same,EC50,[2],> 50 µM
same,EC50,[4],> 50 µM
same,Effect on phenotype and motility of S. mansoni schistosomula,72 h,did not have any effect
"O=C(Nc1ccc2nc(Nc3ccc(Cl)c(Cl)c3)c(Nc3ccc(Cl)c(Cl)c3)nc2c1)C1CCCCC1 [Compound 22e, N-(2,3-bis((3,4-dichlorophenyl)amino)quinoxalin-6-yl)cyclohexanecarboxamide]",EC50,"72 h, Table 2, motility, 72 h, three replicate titrations (0.313–10 μM), read-out: Activity on schistosomula (EC50, μM - 72 h) M",> 50 µM
same,EC50,"72 h, Table 2, phenotype, 72 h, three replicate titrations (0.313–10 μM), read-out: Activity on schistosomula (EC50, μM - 72 h) P",> 50 µM
same,EC50,"72 h, Table S7, motility, 95% CI in brackets, read-out: Activity on schistosomula (EC50, µM - 72 h) (95% CI) M",> 50 µM
same,EC50,"72 h, Table S7, phenotype, 95% CI in brackets, read-out: Activity on schistosomula (EC50, µM - 72 h) (95% CI) P",> 50 µM
same,EC50,"Table 5, Series C, read-out: Anti-schistosomal activity EC50 Schistosomula (μM) Motility",> 50 µM
same,EC50,"Table 5, Series C, read-out: Anti-schistosomal activity EC50 Schistosomula (μM) Phenotype",> 50 µM
COc1ccc(OC)c(Nc2nc3ccccc3nc2Nc2cc(OC)ccc2OC)c1 [Compound 8],EC50,[1],> 50 µM
same,EC50,[2],> 50 µM
same,EC50,[4],> 50 µM
same,Effect on phenotype and motility of S. mansoni schistosomula,72 h,did not have any effect
c1ccc(-c2nc3ccccc3nc2-c2ccccc2)cc1 [Compound 18],EC50,[1],> 10 µM
same,EC50,[2],> 10 µM
same,Effect on phenotype and motility of S. mansoni schistosomula,72 h,weak effect
Cc1ccc(Nc2nc3ccccc3nc2Nc2ccc(C)cc2)cc1 [Compound 15],EC50,[1],> 10 µM
same,EC50,[2],> 10 µM
same,EC50,[4],> 10 µM
same,Effect on phenotype and motility of S. mansoni schistosomula,72 h,weak effect
Cc1ccc(/N=c2\[nH]c3ccccc3s\c2=N\c2ccc(C)cc2)cc1 [Compound 2],EC50,[1],> 50 µM
same,EC50,[2],> 50 µM
same,EC50,[4],> 50 µM
same,Effect on phenotype and motility of S. mansoni schistosomula,72 h,did not have any effect
FC(F)(F)c1cccc(/N=c2\[nH]c3ccccc3s\c2=N\c2cccc(C(F)(F)F)c2)c1 [Compound 4],EC50,[1],> 50 µM
same,EC50,[2],> 50 µM
same,EC50,[4],> 50 µM
same,Effect on phenotype and motility of S. mansoni schistosomula,72 h,did not have any effect

# From article PMC8626775, “Anti-schistosomal activities of quinoxaline-containing compounds: From hit identification to lead optimisation” (European Journal of Medicinal Chemistry, 2021)
